Data reported in patent US20250222063A1, “TOPICAL FORMULATION FOR USE IN THE TREATMENT OR PREVENTION OF DRY ITCHY SKIN” (MC2 THERAPEUTICS LTD, priority 2022, published 2025).
Residues, ends and D or L forms follow the SMILES beside them.

What was measured:
[1] = tested on: bovine serum albumin (BSA); assay: In vitro protein carbamylation assay (14C-potassium cyanate, scintillation counting); type: biochemical; conditions: for Degree of carbamylation (% relative to HBSS control): 10 mM nucleophile, 75 μM BSA, 25 μM 14C-Potassium Cyanate, 37° C., 72 hours, n=3; for scavenger potential: summary in words
Procedure: The tests were performed as described below. 200 μL of a 0.5% BSA solution, 200 μL of test solution and 100 μL of a 5 μCi/mL 14 C-Potassium Cyanate solution was mixed in an Eppendorf tube (corresponding to a final concentration of 75 μM BSA, 25 μM 14 C-Potassium Cyanate, and 10 mM nucleophile). Samples run in triplicates (n=3). The Eppendorf tubes were incubated at 37° C. for 72 hours.
After incubation a volume of 100 μL of each sample was transferred to a new Eppendorf tube containing 100 μL of a 10% trichloroacetic acid (TCA) and kept at 4° C. overnight (for precipitation of BSA). Subsequently, the precipitated BSA was separated from the buffer by centrifugation (10000 rpm, 30 seconds). The supernatant was removed and the BSA pellet 10 was resuspended in 200 μL of a 10% solution of cold TCA (4° C.). The pellet was recovered by centrifugation (10000 rpm, 30 seconds) and supernatant was discarded. The BSA pellet was resuspended in 100 μL purified water (MilliQ) and transferred to a scintillation vial. The Eppendorf tube (previously containing the BSA pellet) was rinsed with an additional 100 μL purified water which al was transferred to the relevant scintillation vial.

[2] = ACD/Labs calculated Log P; conditions: summary in words, judged from Log P
From the text: It is well known in the art that compounds for a given molecular weight with more extreme Log P values are less likely to permeate the skin barrier well. Whether that be extremely hydrophilic (Log P<−2) or extremely hydrophobic (Log P>2) (16).). All of the dipeptides have a molecular weight below 400 therefore a good approximation of their relative permeation potential is their Log P. According to the ACD/Labs calculated Log P values Ala-Gln is the one of the most hydrophilc in nature with a Log P of −4.4.

[3] = Solubility (stated in words); type: physicochemical; conditions: summary in words
[4] = Skin homogenate study (degradation half-life, LC-MS/MS); type: in vitro ADME, human; conditions: for Half life in skin homogenate: pooled human skin homogenate, 37° C., compound working solution 40 μg/mL mixed with equal volume of homogenate; for degradation: summary in words, given as in vivo
Procedure: To identify which of the dipeptides was readily subject to degradation by proteases and other cell processes in the skin, a number of compounds where tested in a skin homogenate study as described below and the results are listed in table 3.
Dermatomed human skin from multiple skin donors was pooled, homogenized, and adjusted to a tissue concentration of 100 mg tissue per mL of homogenate. The homogenate was used immediately following preparation without any additional freeze/thaw cycles. Working solutions of each compound were prepared in Dulbecco's phosphate-buffered saline (DPBS) at 40 μg/mL. All solutions were pre-heated to 37° C. Equal volumes of skin homogenate and compound working solution were combined, mixed, held at 37° C., and sampled at 0, 15, 30, 60, 120, and 240 minutes. Samples were quenched with acidic acetonitrile, centrifuged, and prepared for LC-MS/MS analysis. Peak areas of each compound at each time-point were determined by LC-MS/MS.
The individual half-life of each dipeptide was determined.
The nature of the experiment should be considered indicative of the relative stability of each of the compounds rather than an absolute correlation to what would happen in vivo. The process of homogenizing the skin is likely to greatly accelerate the degradation. However, it is clear that there is substantial variation in the relative rates for each dipeptide. (See Table 3)

[5] = Aqueous stability in HBSS buffer at 40° C. (HPLC-UV); type: physicochemical; conditions: for 1 month aqueous stability at 40° C. / 3 month aqueous stability at 40° C.: 3% wt/wt or 0.4% wt/wt in HBSS buffer, glass vials, HPLC-UV, in % (unit assumed); for aqueous stability: summary in words
Procedure: An important aspect of formulating a stable topical product. Data in Table 4 below gives 1 month and 3 month stability data at 40° C. Compounds were dissolved at 3% wt/wt or 0.4% wt/wt (if 3% was not possible) in HBSS buffer and stored in glass vials at temperature. Samples were subsequently analyzed by HPLC-UV.

## C[C@H](N)C(=O)N[C@@H](CCC(N)=O)C(=O)O [Ala-Gln] (H-Ala-Gln-OH)
[1]
  Degree of carbamylation (% relative to HBSS control): 34.8 % relative to HBSS control
  scavenger potential: good
[2]
  transdermal penetration potential: poor
[3]
  solubility: good
[4]
  Half life in skin homogenate: <5 min
  degradation: rapid
[5]
  1 month aqueous stability at 40° C.: 100.6
  3 month aqueous stability at 40° C.: 100.1
  aqueous stability: good

## C[C@H](N)C(=O)N[C@@H](CCC(=O)O)C(=O)O [Ala-Glu] (H-Ala-Glu-OH)
[1]
  Degree of carbamylation (% relative to HBSS control): 20.4 % relative to HBSS control
  scavenger potential: good
[2]
  transdermal penetration potential: poor
[3]
  solubility: good
[4]
  Half life in skin homogenate: 39 min
  degradation: rapid
[5]
  1 month aqueous stability at 40° C.: 99.1
  3 month aqueous stability at 40° C.: 99.0
  aqueous stability: good

## NCC(=O)N[C@@H](CCCN=C(N)N)C(=O)O [Gly-Arg] (H-Gly-Arg-OH)
[1]
  scavenger potential: good
[2]
  transdermal penetration potential: poor
[3]
  solubility: good
[4]
  Half life in skin homogenate: 45 min
  degradation: rapid
[5]
  aqueous stability: good
